Converted amounts (≈) assume the structure as drawn. Read-outs that look alike come from different tables or passages of the source.
What was measured:
[1] = system: S. aureus; experiment: MIC90 against linezolid-susceptible clinical isolates of S. aureus; format: cell-based, Staphylococcus aureus; settings: for MIC90: Staphylococcus aureus, 34 strains, linezolid-susceptible, including MRSA
Source text: (§1) Compounds of this invention can have useful activity against a variety of pathogenic microorganisms. The in vitro activity of compounds of this invention can be assessed by standard testing procedures such as the determination of minimum inhibitory concentration (MIC) by agar dilution as described in “Approved Standard. Methods for Dilution Antimicrobial Susceptibility Tests for Bacteria That Grow Aerobically”, 3rd. ed., published 1993 by the National Committee for Clinical Laboratory Standards, Villanova, Pa., USA. Minimum inhibitory concentration (MIC) refers to the lowest concentration of drug (μg/mL) that inhibits visible growth of the organism. Lower MIC values indicate a higher antibacterial activity. Typically, compounds of the present invention have useful potency against Gram-positive or Gram-negative pathogens with MIC values of ≦8 μg/mL. To measure useful antibacterial activity against multiple bacterial isolates or strains, MIC90 (or minimal inhibitory concentration of the drug that inhibits visible growth of 90% of the microbes in each bacterial specie panel) is determined. Lower MIC number indicates an elevated degree of useful antibacterial activity, while higher MIC number indicates a reduced antibacterial activity. An agent with too high MIC against a bacterial pathogen can not be used for the treatment of infections caused by such microbial species.
(§2) The useful activity of compounds of the present invention against an expanded set of clinical isolates of Staphylococcus aureus (including methicillin-resistant strain, MRSA), Enterococci (including Enterococcus faecalis and Enterococus faecium), and […] is illustrated by the MIC90 data in Table 1.

[2] = system: Enterococci; experiment: MIC90 against linezolid-susceptible Enterococci; format: cell-based; settings: for MIC90: Enterococcus faecalis, 34 strains, linezolid-susceptible
Source text: as §1, §2

[3] = system: S. pneumoniae; experiment: MIC90 against linezolid-susceptible S. pneumoniae; format: cell-based, Streptococcus pneumoniae; settings: for MIC90: Streptococcus pneumoniae, read-out: S. pneumoniae (34 strains) MIC90
Source text: as §1, §2

[4] = system: linezolid-resistant S. aureus; experiment: MIC against linezolid-resistant S. aureus strains; format: cell-based, Staphylococcus aureus; settings: one value per group of strains; for MIC: Staphylococcus aureus, read-out: S. aureus (no. of strains) MIC
Source text: as §1
(§3) The useful activity of representative compounds of the present invention against several isolates of linezolid-resistant Staphylococcus aureus, Enterococus faecalis and Enterococcu faecium illustrated by the MIC data of Table 2.

[5] = system: linezolid-resistant E. faecalis; experiment: MIC against linezolid-resistant E. faecalis strains; format: cell-based, Enterococus faecalis; settings: one value per group of strains; for MIC: Enterococcus faecalis, read-out: E. faecalis (no. of strains) MIC
Source text: as §1, §3

[6] = system: linezolid-resistant E. faecium; experiment: MIC against linezolid-resistant E. faecium strains; format: cell-based, Enterococcus faecium; settings: one value per group of strains; for MIC: Enterococcus faecium, read-out: E. faecium (no. of strains) MIC
Source text: as §1, §3

[7] = system: H. influenzae; experiment: MIC against isolates of H. influenzae; format: cell-based, Haemophilus influenzae; settings: for MIC: Haemophilus influenzae
Source text: as §1
The useful activity of representative compounds of the present invention against several isolates of H. influenzae is illustrated by the MIC data of Table 3. H. influenzae is a fastidious Gram-negative pathogen implicated in multiple infections, including pneumonia and bacterial meningitis. No oxazolidinone agent is presently approved for the treatment of H. influenzae infections.

[8] = system: reticulocytes; experiment: 5-days mouse sub-acute toxicity test (myelosuppression, reticulocyte count); format: in vivo; settings: for Ratio for reticulocyte count relative to that for compound of Example 1 / fold drop in the reticulocyte cells counts compared to compound of Example 1: 37.5 mg/kg/day twice-daily, day 5
Protocol: The potential of representative compounds of this invention for myelosuppression has been evaluated in a 5-days mouse sub-acute toxicity test. For comparison purposes, Reference Compound 14 (Example 143 of publication US 2003/0166620) and Reference Compound 15 (TR-700 or torezolid; publications PCT WO2005/058886 and PCT WO2010/042887) have been included. The compounds were dosed to mice at 37.5 mg/kg/day on a twice-daily schedule. On day 5, blood was harvested for hematology testing. The toxicity was evaluated based on the reduction in the number of reticulocytes, previously described as the key marker for myelosuppression signs in pre-clinical testing of oxazolidinones, including linezolid. Thus, a higher degree of a reduction in the reticulocyte count is indicative of an elevated toxicity, while a lower drop in the reticulocyte count indicates a reduced propensity to the myelosuppression effect on the blood cells.

[9] = system: Haemophilus influenzae; settings: reported value; cited from earlier work
[10] = system: Staphylococcus species; settings: cited from earlier work
[11] = system: linezolid-resistant bacterial strains; settings: cited from earlier work
[12] = system: key Gram-positive pathogens; experiment: MIC against key Gram-positive pathogens, further compounds (tests of Table 1); format: cell-based; settings: in the tests of Table 1
Source text: as §1, §2

[13] = one value per group of strains, read-out: H. influenzae (no. of strains) MIC
[14] = 34 strains, linezolid-susceptible
[15] = read-out: MIC values against H. influenzae as summarised in text, summary of Table 3
[16] = versus Reference Compound 15, Table 1 data
[17] = mice, 37.5 mg/kg/day on a twice-daily schedule, blood on day 5

Row | Compound | MIC90 [1] [µg/mL] | MIC90 [2] [µg/mL] | MIC [5] [µg/mL] | MIC [6] [µg/mL] | MIC [7, 13] [µg/mL] | H. influenzae (no. of strains) MIC ([7]; one value per group of strains) | Ratio for reticulocyte count relative to that for compound of Example 1 ([8]; mice) | MIC values compared to linezolid or Reference Compound 15 [12] | other results
1 | Cn1nnc(-c2ccc(-c3ccc(N4C[C@H](CO)OC4=O)cc3F)cn2)n1 [Ref. Cpd. 15, (5R)-3-[3-fluoro-4-[6-(2-methyltetrazol-5-yl)-3-pyridyl]phenyl]-5-(hydroxymethyl)oxazolidin-2-one] | 0.5 (≈ 1.35 µM) | 0.5 (≈ 1.35 µM) | 4 (≈ 10.8 µM) | 4 (≈ 10.8 µM) | > 16 | 8 (4 strains) μg/mL | 0.15 |  | MIC90 [3]: 0.25 µg/mL (≈ 0.675 µM); MIC [4]: 8 µg/mL (≈ 21.6 µM); S. aureus (no. of strains) MIC [4]: 4 (2 strains) μg/mL; E. faecium (no. of strains) MIC [6]: 2 (1 strain)^ μg/mL; fold drop in the reticulocyte cells counts compared to compound of Example 1 ([8]; mice): ~2.6 fold; Reticulocyte count on Day 5, cell count ([8]; mouse, in vivo, 37.5 mg/kg/day, 5 days): 1.91e+10 L⁻¹
2 | CC(=O)NC[C@H]1CN(c2ccc(N3CCOCC3)c(F)c2)C(=O)O1 [Linezolid, linezolid] | 2 (≈ 5.93 µM) | 2 (≈ 5.93 µM) | 16 (≈ 47.4 µM) | 16 (≈ 47.4 µM) | 8 (≈ 23.7 µM) | 16 (2 strains) μg/mL |  |  | MIC90 [3, 14]: 1 µg/mL (≈ 2.96 µM); MIC [4]: 16 µg/mL (≈ 47.4 µM); S. aureus (no. of strains) MIC [4]: >16 (3 strains) μg/mL; MIC90 against Haemophilus influenzae (typical) [9]: 16 µg/mL (≈ 47.4 µM); MIC against Staphylococci species (such as S. aureus) ([10]; generally displayed): 2 to 4 µg/mL; useful MIC90 against Gram-positive Staphylococcus species ([10]; species for which the drug is indicated): 2 to 4 µg/mL; MICs against linezolid-resistant bacterial strains [11]: ≥ 8 µg/mL
3 | O=C1O[C@@H](CO)CN1c1ccc(-c2ccc(N3CCCC3=O)nc2)c(F)c1 [Example 10] |  |  | 1 (≈ 2.69 µM) | 1 (≈ 2.69 µM) | 4 (≈ 10.8 µM) |  |  | lower range MIC values | E. faecalis (no. of strains) MIC [5]: 2 (3 strains) μg/mL; MIC [7, 15]: < 4 µg/mL
4 | O=C1O[C@@H](CO)CN1c1ccc(-c2ccc(N3CCNC3=O)nc2)c(F)c1 [Example 7] |  |  |  | 0.5 (≈ 1.34 µM) |  |  |  | lower range MIC values | E. faecium (no. of strains) MIC [6]: 1 (4 strains) μg/mL
5 | O=C1O[C@@H](CO)CN1c1ccc(-c2ccc(N3CCOC3=O)nc2)c(F)c1 [Example 1] | 0.125 (≈ 0.335 µM) | 0.25 (≈ 0.67 µM) | 0.5 (≈ 1.34 µM) | 0.5 (≈ 1.34 µM) | 2 (≈ 5.36 µM) | 4 (1 strain)^ μg/mL | 1 |  | MIC90 fold lower than Reference Compound 15, S. aureus [1, 16]: about 4 fold; MIC90 fold lower than linezolid, S. aureus ([1]; versus linezolid, Table 1 data): about 16 fold; MIC90 fold lower than Reference Compound 15, Enterococci species [2, 16]: ~2 fold; MIC90 fold lower than linezolid, Enterococci species ([2]; versus linezolid, Table 1 data): ~8 fold; MIC90 [3, 14]: 0.06 µg/mL (≈ 0.161 µM); MIC90 fold lower than Reference Compound 15, S. pneumoniae [3, 16]: about 4 fold; MIC90 fold lower than linezolid, S. pneumoniae ([3]; versus linezolid, Table 1 data): about 16 fold; E. faecalis (no. of strains) MIC [5]: 1 (3 strains) μg/mL; MIC [7, 15]: < 4 µg/mL; Reticulocyte count on Day 5, cell count [8, 17]: 1.275e+11 L⁻¹
6 | CC(=O)NC[C@H]1CN(c2ccc(-c3ccc(N4CCOC4=O)nc3)c(F)c2)C(=O)O1 [Ref. Cpd. 14, N-[[(5S)-3-[3-fluoro-4-[6-(2-oxooxazolidin-3-yl)-3-pyridyl]phenyl]-2-oxo-oxazolidin-5-yl]methyl]acetamide] |  |  |  |  |  |  | 0.39 |  | Reticulocyte count on Day 5, cell count [8, 17]: 5e+10 L⁻¹; fold drop in the reticulocyte cells counts compared to compound of Example 1 ([8]; mice): ~2.6 fold
7 | O=C1O[C@@H](CO)CN1c1ccc(-c2ccc(N3CCOC3=O)nc2)cc1 [Example 13] |  |  |  |  | 4 (≈ 11.3 µM) |  |  | lower range MIC values | 

Source: patent US20120065170A1, “Antimicrobial Cyclocarbonyl Heterocyclic Compounds For Treatment Of Bacterial Infections” (priority 2010, published 2012)
